System: 4 PI3K isoforms (Human recombinant GST-PI3K)
Test: PI3K scintillation proximity assay, best IC50 obtained with the four isoforms (alpha, beta, delta, gamma)
Format: biochemical
Settings: best IC50 obtained with the four isoforms of PI3K; read-out: Best potency measured on the 4 PI3K isoforms

SMILES | IC50 [µM]
O=C(c1nn([C@H]2CCCN(CCN3CCCC3)C2)c2c1CS(=O)(=O)c1ccccc1-2)N1CCOCC1 (stereo in doubt) [Example 450, 3-(morpholin-4-ylcarbonyl)-1-[1-(2-pyrrolidin-1-ylethyl)piperidin-3-yl]-1,4-dihydrothiochromeno[4,3-c]pyrazole 5,5-dioxide] | 0.007
CN1CCC(N2CCC[C@H](n3nc(C(=O)N4CCOCC4)c4c3-c3ccccc3S(=O)(=O)C4)C2)CC1 (stereo in doubt) [Example 451, 1-[1′-methyl-1,4′-bipiperidin-3-yl]-3-(morpholin-4-ylcarbonyl)-1,4-dihydrothiochromeno[4,3-c]pyrazole 5,5-dioxide] | 0.028
CN1CCCC(N2CCC[C@H](n3nc(C(=O)N4CCOCC4)c4c3-c3ccccc3S(=O)(=O)C4)C2)C1 (stereo in doubt) [Example 459, 1-[1′-methyl-1,3′-bipiperidin-3-yl]-3-(morpholin-4-ylcarbonyl)-1,4-dihydrothiochromeno[4,3-c]pyrazole 5,5-dioxide] | 0.018
COC1CCN(CCN2CCC[C@H](n3nc(C(=O)N4CCOCC4)c4c3-c3ccccc3S(=O)(=O)C4)C2)CC1 (stereo in doubt) [Example 460, 1-{1-[2-(4-methoxypiperidin-1-yl)ethyl]piperidin-3-yl}-3-(morpholin-4-ylcarbonyl)-1,4-dihydrothiochromeno[4,3-c]pyrazole 5,5-dioxide] | 0.021
O=C(c1nn([C@H]2CCCN(CCN3CCC(O)CC3)C2)c2c1CS(=O)(=O)c1ccccc1-2)N1CCOCC1 (stereo in doubt) [Example 463, 1-(2-{3-[3-(morpholin-4-ylcarbonyl)-5,5-dioxidothiochromeno[4,3-c]pyrazol-1(4H)-yl]piperidin-1-yl}ethyl)piperidin-4-ol] | 0.018
O=C(c1nn([C@H]2CCCN(CCN3CC(F)(F)C3)C2)c2c1CS(=O)(=O)c1c(F)cccc1-2)N1CCOCC1 (stereo in doubt) [Example 464, 1-{1-[2-(3,3-difluoroazetidin-1-yl)ethyl]piperidin-3-yl}-6-fluoro-3-(morpholin-4-ylcarbonyl)-1,4-dihydrothiochromeno[4,3-c]pyrazole 5,5-dioxide] | 0.022
O=C(c1nn([C@H]2CCCN(CCN3CCCCC3)C2)c2c1CS(=O)(=O)c1ccccc1-2)N1CCOCC1 (stereo in doubt) [Example 465, 3-(morpholin-4-ylcarbonyl)-1-[1-(2-piperidin-1-ylethyl)piperidin-3-yl]-1,4-dihydrothiochromeno[4,3-c]pyrazole 5,5-dioxide] | 0.015
O=C(c1nn([C@H]2CCCN(Cc3cccnc3)C2)c2c1CS(=O)(=O)c1ccccc1-2)N1CCOCC1 (stereo in doubt) [Example 466, 3-(morpholin-4-ylcarbonyl)-1-[1-(pyridin-3-ylmethyl)piperidin-3-yl]-1,4-dihydrothiochromeno[4,3-c]pyrazole 5,5-dioxide] | 0.085
O=C(c1nn([C@H]2CCCN(c3ccncc3)C2)c2c1CS(=O)(=O)c1ccccc1-2)N1CCOCC1 (stereo in doubt) [Example 468, 3-(morpholin-4-ylcarbonyl)-1-[1-pyridin-4-ylpiperidin-3-yl]-1,4-dihydrothiochromeno[4,3-c]pyrazole 5,5-dioxide] | 0.133
Cc1cccc2c1S(=O)(=O)Cc1c(C(=O)N3CCOCC3)nn([C@H]3CCCN(CCN4CCOCC4)C3)c1-2 (stereo in doubt) [Example 471, 6-methyl-3-(morpholin-4-ylcarbonyl)-1-[1-(2-morpholin-4-ylethyl)piperidin-3-yl]-1,4-dihydrothiochromeno[4,3-c]pyrazole 5,5-dioxide] | 0.049
O=C(c1nn([C@H]2CCCN(Cc3ccncc3)C2)c2c1CS(=O)(=O)c1ccccc1-2)N1CCOCC1 (stereo in doubt) [Example 473, 3-(morpholin-4-ylcarbonyl)-1-[1-(pyridin-4-ylmethyl)piperidin-3-yl]-1,4-dihydrothiochromeno[4,3-c]pyrazole 5,5-dioxide] | 0.045

Source: patent US9073940B2, “Tricyclic pyrazol amine derivatives” (MERCK SERONO SA, priority 2009, dated 2015)
